Data taken from patent US20250345446A1 (Draupnir Bio ApS, priority 2022, published 2025).
Like-named read-outs stand apart in the source and are kept apart here. Residues, ends and D or L forms follow the SMILES beside them. *: point of attachment. Biotin = O=C1N[C@H]2[C@H](CS[C@H]2CCCCC(=O)*)N1

Legend:
[1] = biological target: streptavidin, bifunctional compound and sortilin-6his (UniProt P22629+Q99523, V650M); experiment: TR-FRET ternary complex formation streptavidin / bifunctional peptide / sortilin-6his; settings: Table 2; […] incubation, HTRF ratio 665/620 nm
Method: In these experiments, the compounds of interest were titrated over 24-point in a 384-well TTP LVDS plate (SPT Labtech) to a final buffer composition of 50 mM Bis-Tris Propane pH 8, 50 mM NaCl, 0.05% Tween20, with or without 10% DMSO using a Mosquito LV pipetting robot (SPT Labtech).
The reaction was allowed to incubate for 2.5 hours at room temperature, at which point the HTRF signal ratio at 665/620 nm was determined using a plate reader (ClarioStar, BMG Labtech). All reactions were run in triplicates and data was represented as HTRF ratio as a function of bifunctional compound concentration.

[2] = biological target: T1, soluble ectodomain of sortilin-6his (Homo sapiens, UniProt Q99523, V650M); experiment: MST binding to soluble ectodomain of sortilin-6his
T1 construct: the soluble ectodomain of sortilin-6his is measured by microscale thermophoresis (MST)
T1 sequence (Q99523 with tags, fused parts or gaps V650M): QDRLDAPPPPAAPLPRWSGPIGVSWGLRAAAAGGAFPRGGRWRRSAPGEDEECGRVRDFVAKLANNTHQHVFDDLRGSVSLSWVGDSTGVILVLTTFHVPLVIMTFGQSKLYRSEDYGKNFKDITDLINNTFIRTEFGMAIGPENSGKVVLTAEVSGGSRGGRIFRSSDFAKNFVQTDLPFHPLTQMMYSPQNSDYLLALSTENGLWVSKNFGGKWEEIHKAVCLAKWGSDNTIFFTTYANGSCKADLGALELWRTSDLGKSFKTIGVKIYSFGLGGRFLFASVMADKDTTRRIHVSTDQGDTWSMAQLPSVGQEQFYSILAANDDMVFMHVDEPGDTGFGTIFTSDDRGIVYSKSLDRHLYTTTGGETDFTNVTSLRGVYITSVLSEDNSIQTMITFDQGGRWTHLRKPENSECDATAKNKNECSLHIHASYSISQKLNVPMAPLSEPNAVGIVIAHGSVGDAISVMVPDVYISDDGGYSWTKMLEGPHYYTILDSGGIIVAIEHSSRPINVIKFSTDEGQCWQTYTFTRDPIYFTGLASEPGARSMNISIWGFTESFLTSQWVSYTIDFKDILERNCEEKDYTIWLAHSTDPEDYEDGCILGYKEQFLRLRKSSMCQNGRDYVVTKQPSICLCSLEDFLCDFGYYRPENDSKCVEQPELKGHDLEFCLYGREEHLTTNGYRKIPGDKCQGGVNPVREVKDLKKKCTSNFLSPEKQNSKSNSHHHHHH

[3] = tested on: HEK293 cells expressing full length sortilin receptor; experiment: Cellular uptake of AlexaFluor488-anti-DNP antibody; format: cell-based; settings: for AUC score, target internalization: Table 7, AlexaFluor488-anti-DNP antibody (100 nM), 3 h, DNP warhead compounds
From the text: In this example, the small molecule degraders consist of a sortilin binder linked to warhead DNP to target anti-DNP antibodies (BF001 to BF016)
Cellular uptake of AlexaFluor488-anti-DNP antibody (Thermo Fisher) was investigated in HEK293 cells expressing full length sortilin receptor in a methodology analogous to example 3.

Sortilin-6His [4] = biological target: T2, Sortilin-6His (Homo sapiens (Human), UniProt Q99523 78-755); experiment: MST on labelled sortilin-6his ectodomain; KD score: ++ <100 nM, + 100-2000 nM
T2 construct: In MST it was labelled non-covalently with RED-tris-NTA; also called soluble ectodomain of sortilin-6his; fluorescent sortilin-6his
T2 sequence (Q99523 78-755 V650M limits assumed): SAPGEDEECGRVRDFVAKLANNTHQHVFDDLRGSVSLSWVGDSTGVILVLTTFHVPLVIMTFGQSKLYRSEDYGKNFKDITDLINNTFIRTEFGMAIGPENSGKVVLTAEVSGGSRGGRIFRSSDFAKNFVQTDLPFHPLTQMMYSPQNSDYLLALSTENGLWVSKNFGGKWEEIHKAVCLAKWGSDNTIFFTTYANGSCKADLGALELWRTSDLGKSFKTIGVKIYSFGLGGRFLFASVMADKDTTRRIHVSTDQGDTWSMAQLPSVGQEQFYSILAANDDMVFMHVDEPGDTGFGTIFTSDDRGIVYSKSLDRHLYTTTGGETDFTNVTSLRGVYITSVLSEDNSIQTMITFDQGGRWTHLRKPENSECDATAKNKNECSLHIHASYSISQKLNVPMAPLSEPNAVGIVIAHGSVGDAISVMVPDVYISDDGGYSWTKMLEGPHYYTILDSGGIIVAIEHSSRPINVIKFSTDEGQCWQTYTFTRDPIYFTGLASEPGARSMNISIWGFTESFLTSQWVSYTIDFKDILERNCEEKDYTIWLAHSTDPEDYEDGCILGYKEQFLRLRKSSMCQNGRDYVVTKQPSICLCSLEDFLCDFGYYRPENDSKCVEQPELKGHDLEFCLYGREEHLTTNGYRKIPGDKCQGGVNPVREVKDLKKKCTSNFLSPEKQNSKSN

Sortilin-6His [5] = biological target: T2, Sortilin-6His; experiment: TR-FRET (HTRF) ternary complex streptavidin-d2 / biotin-peptide / sortilin-6His; AUC score: + <5000, ++ >5000
[6] = Table 1, biotin-linker-peptide bifunctional compounds, MST, read-out: KD score, binding to sortilin (Kd)

Molecule	Kd [2]	AUC score, target internalization [3]	KD (Sortilin-6His [4])	AUC of TR-FRET (HTRF ratio vs compound concentration) for ternary complex formation (Sortilin-6His [5])	also measured
CC(C)C[C@H](NC(=O)[C@H](CC(C)C)NC(=O)[C@H](CCC(N)=O)NC(=O)[C@H](CCCNC(=N)N)NC(=O)CNC(=O)CNC(=O)CNC(=O)[C@H](CO)NC(=O)CNC(=O)CNC(=O)CNC(=O)CNC(=O)[C@H](CO)NC(=O)CNC(=O)CNC(=O)CCCC[C@@H]1SC[C@@H]2NC(=O)N[C@@H]21)C(=O)O [compound 149] (Biotin-GGSGGGGSGGGRQLL-OH)	–	–	–	–	AUC score, TR-FRET measurements of ternary complex formation [1]: + (AUC < 5000); Kd [2, 6]: 100 to 2000 nM
CC(C)(C)CC[C@H](NC(=O)c1ccc(Oc2cccc3c(C(=O)NCCCNC(=O)CCOCCOCCOCCOCCNc4ccc([N+](=O)[O-])cc4[N+](=O)[O-])cccc23)nc1)C(=O)O [BF010, (2S)-2-[[6-[[5-[3-[3-[2-[2-[2-[2-(2,4-dinitroanilino)ethoxy]ethoxy]ethoxy]ethoxy]propanoylamino]propylcarbamoyl]-1-naphthyl]oxy]pyridine-3-carbonyl]amino]-5,5-dimethyl-hexanoic acid]	1 to 10 nM	++ (AUC > 10.000)	–	–	–
CC(C)C[C@H](NC(=O)[C@H](CC(C)C)NC(=O)[C@H](CCC(N)=O)NC(=O)[C@H](Cc1ccccc1)NC(=O)CNC(=O)[C@H](CO)NC(=O)CNC(=O)CNC(=O)CNC(=O)CNC(=O)[C@H](CO)NC(=O)CNC(=O)CNC(=O)CCCC[C@@H]1SC[C@@H]2NC(=O)N[C@@H]21)C(=O)O [compound 145] (Biotin-GGSGGGGSGFQLL-OH)	–	–	–	–	AUC score, TR-FRET measurements of ternary complex formation [1]: + (AUC < 5000); Kd [2, 6]: < 100 nM
CC(C)(C)CC[C@H](NC(=O)c1ccc(Oc2cccc(OCCOCCOCCOCCOCCOCCOCCNc3ccc([N+](=O)[O-])cc3[N+](=O)[O-])c2)nc1)C(=O)O [BF014, (2S)-2-[[6-[3-[2-[2-[2-[2-[2-[2-[2-(2,4-dinitroanilino)ethoxy]ethoxy]ethoxy]ethoxy]ethoxy]ethoxy]ethoxy]phenoxy]pyridine-3-carbonyl]amino]-5,5-dimethyl-hexanoic acid]	10 to 250 nM	++ (AUC > 10.000)	–	–	–
CC(C)(C)CC[C@H](NC(=O)c1ccc(Oc2cccc(OCCOCCOCCOCCOCCOCCNc3ccc([N+](=O)[O-])cc3[N+](=O)[O-])c2)nc1)C(=O)O [BF004, (2S)-2-[[6-[3-[2-[2-[2-[2-[2-[2-(2,4-dinitroanilino)ethoxy]ethoxy]ethoxy]ethoxy]ethoxy]ethoxy]phenoxy]pyridine-3-carbonyl]amino]-5,5-dimethyl-hexanoic acid]	1 to 10 nM	+ (AUC < 10.000)	–	–	–
CC(C)C[C@H](NC(=O)[C@H](CC(C)C)NC(=O)[C@H](CCC(N)=O)NC(=O)[C@H](Cc1ccccc1)NC(=O)[C@H](CO)NC(=O)CNC(=O)CNC(=O)CNC(=O)CNC(=O)[C@H](CO)NC(=O)CNC(=O)CNC(=O)CNC(=O)CNC(=O)[C@H](CO)NC(=O)CNC(=O)CNC(=O)CCCC[C@@H]1SC[C@@H]2NC(=O)N[C@@H]21)C(=O)O [compound 146] (Biotin-GGSGGGGSGGGGSFQLL-OH)	–	–	–	–	AUC score, TR-FRET measurements of ternary complex formation [1]: ++ (AUC > 5000); Kd [2, 6]: 100 to 2000 nM
CC(C)C[C@H](NC(=O)[C@H](CC(C)C)NC(=O)[C@H](CCC(N)=O)NC(=O)[C@H](Cc1ccccc1)NC(=O)CNC(=O)CNC(=O)CNC(=O)[C@H](CO)NC(=O)CNC(=O)CNC(=O)CNC(=O)CNC(=O)[C@H](CO)NC(=O)CNC(=O)CNC(=O)CCCC[C@@H]1SC[C@@H]2NC(=O)N[C@@H]21)C(=O)O [compound 148] (Biotin-GGSGGGGSGGGFQLL-OH)	–	–	–	–	AUC score, TR-FRET measurements of ternary complex formation [1]: ++ (AUC > 5000); Kd [2, 6]: 100 to 2000 nM
CC(C)(C)CC[C@H](NC(=O)c1ccc(Oc2cccc(C(=O)NCCOCCOCCOCCOCCOCCOCCNc3ccc([N+](=O)[O-])cc3[N+](=O)[O-])c2)nc1)C(=O)O [BF008, (2S)-2-[[6-[3-[2-[2-[2-[2-[2-[2-[2-(2,4-dinitroanilino)ethoxy]ethoxy]ethoxy]ethoxy]ethoxy]ethoxy]ethylcarbamoyl]phenoxy]pyridine-3-carbonyl]amino]-5,5-dimethyl-hexanoic acid]	1 to 10 nM	+ (AUC < 10.000)	–	–	–
CC(C)(C)CC[C@H](NC(=O)c1ccc(Oc2cccc(C(=O)NCCOCCOCCOCCOCCOCCOCCOCCNc3ccc([N+](=O)[O-])cc3[N+](=O)[O-])c2)nc1)C(=O)O [BF006, (2S)-2-[[6-[3-[2-[2-[2-[2-[2-[2-[2-[2-(2,4-dinitroanilino)ethoxy]ethoxy]ethoxy]ethoxy]ethoxy]ethoxy]ethoxy]ethylcarbamoyl]phenoxy]pyridine-3-carbonyl]amino]-5,5-dimethyl-hexanoic acid]	1 to 10 nM	+ (AUC < 10.000)	–	–	cell associated FI signal, response to concentration series (in words) ([3]; 3 h incubation, 1.9 nM to 2 μM, AlexaFluor488-anti-DNP antibody 100 nM): bell-shaped response
Biotin-GGSGGGGSGGGGSGGFQLL-OH (SMILES CC(C)C[C@H](NC(=O)[C@H](CC(C)C)NC(=O)[C@H](CCC(N)=O)NC(=O)[C@H](Cc1ccccc1)NC(=O)CNC(=O)CNC(=O)[C@H](CO)NC(=O)CNC(=O)CNC(=O)CNC(=O)CNC(=O)[C@H](CO)NC(=O)CNC(=O)CNC(=O)CNC(=O)CNC(=O)[C@H](CO)NC(=O)CNC(=O)CNC(=O)CCCC[C@@H]1SC[C@@H]2NC(=O)N[C@@H]21)C(=O)O) [Biotin-GGSGGGGSGGGGSGGFQLL-OH]	–	–	100 to 2000 nM	> 5000 auc	–
Biotin-GGSGGGGSGGGFQLL-OH (SMILES CC(C)C[C@H](NC(=O)[C@H](CC(C)C)NC(=O)[C@H](CCC(N)=O)NC(=O)[C@H](Cc1ccccc1)NC(=O)CNC(=O)CNC(=O)CNC(=O)[C@H](CO)NC(=O)CNC(=O)CNC(=O)CNC(=O)CNC(=O)[C@H](CO)NC(=O)CNC(=O)CNC(=O)CCCC[C@@H]1SC[C@@H]2NC(=O)N[C@@H]21)C(=O)O) [Biotin-GGSGGGGSGGGFQLL-OH]	–	–	100 to 2000 nM	> 5000 auc	–
Biotin-GGSGGGGSGGGRQLL-OH (SMILES CC(C)C[C@H](NC(=O)[C@H](CC(C)C)NC(=O)[C@H](CCC(N)=O)NC(=O)[C@H](CCCNC(=N)N)NC(=O)CNC(=O)CNC(=O)CNC(=O)[C@H](CO)NC(=O)CNC(=O)CNC(=O)CNC(=O)CNC(=O)[C@H](CO)NC(=O)CNC(=O)CNC(=O)CCCC[C@@H]1SC[C@@H]2NC(=O)N[C@@H]21)C(=O)O) [Biotin-GGSGGGGSGGGRQLL-OH]	–	–	100 to 2000 nM	< 5000 auc	–
Biotin-GGSGGGGSGGGGSRQLL-OH (SMILES CC(C)C[C@H](NC(=O)[C@H](CC(C)C)NC(=O)[C@H](CCC(N)=O)NC(=O)[C@H](CCCNC(=N)N)NC(=O)[C@H](CO)NC(=O)CNC(=O)CNC(=O)CNC(=O)CNC(=O)[C@H](CO)NC(=O)CNC(=O)CNC(=O)CNC(=O)CNC(=O)[C@H](CO)NC(=O)CNC(=O)CNC(=O)CCCC[C@@H]1SC[C@@H]2NC(=O)N[C@@H]21)C(=O)O) [Biotin-GGSGGGGSGGGGSRQLL-OH]	–	–	< 100 nM	< 5000 auc	–
Biotin-GGSGGGGSGGGGSFQLL-OH (SMILES CC(C)C[C@H](NC(=O)[C@H](CC(C)C)NC(=O)[C@H](CCC(N)=O)NC(=O)[C@H](Cc1ccccc1)NC(=O)[C@H](CO)NC(=O)CNC(=O)CNC(=O)CNC(=O)CNC(=O)[C@H](CO)NC(=O)CNC(=O)CNC(=O)CNC(=O)CNC(=O)[C@H](CO)NC(=O)CNC(=O)CNC(=O)CCCC[C@@H]1SC[C@@H]2NC(=O)N[C@@H]21)C(=O)O) [Biotin-GGSGGGGSGGGGSFQLL-OH]	–	–	100 to 2000 nM	> 5000 auc	–
Biotin-GGSGGGGSGRQLL-OH (SMILES CC(C)C[C@H](NC(=O)[C@H](CC(C)C)NC(=O)[C@H](CCC(N)=O)NC(=O)[C@H](CCCNC(=N)N)NC(=O)CNC(=O)[C@H](CO)NC(=O)CNC(=O)CNC(=O)CNC(=O)CNC(=O)[C@H](CO)NC(=O)CNC(=O)CNC(=O)CCCC[C@@H]1SC[C@@H]2NC(=O)N[C@@H]21)C(=O)O) [Biotin-GGSGGGGSGRQLL-OH]	–	–	< 100 nM	< 5000 auc	–
Biotin-GGSGGGGSGFQLL-OH (SMILES CC(C)C[C@H](NC(=O)[C@H](CC(C)C)NC(=O)[C@H](CCC(N)=O)NC(=O)[C@H](Cc1ccccc1)NC(=O)CNC(=O)[C@H](CO)NC(=O)CNC(=O)CNC(=O)CNC(=O)CNC(=O)[C@H](CO)NC(=O)CNC(=O)CNC(=O)CCCC[C@@H]1SC[C@@H]2NC(=O)N[C@@H]21)C(=O)O) [Biotin-GGSGGGGSGFQLL-OH]	–	–	< 100 nM	< 5000 auc	–
